Measurements reported in patent publication EP2253620B1, “SUBSTITUTED 3-CYANOQUINOLINES AS PROTEIN TYROSINE KINASES INHIBITORS” (Wyeth Holdings LLC, priority 1998, dated 2000).
In brackets after ≈: the same amount, converted by molar mass. Blank lines part the entries; values can stand above or below the molecule they belong to.

Key:
A431 = experiment: Inhibition of Cancer Cell Growth as Measured by Cell Number; format: cell-based, Human; conditions: 48 hours exposure, Sulforhodamine B; for IC50: Homo sapiens, A-431
Procedure: (§1) Inhibition of Cancer Cell Growth as Measured bv Cell Number
(§2) Human tumor cell lines were plated in 96-well plates (250 µl/well, 1-6 x 10^4 cells/ml) in RPMI 1640 medium, containing 5% FBS (Fetal Bovine Serum). […] After 48 hours exposure to test compounds, cells were fixed with trichloroacetic acid, and stained with Sulforhodamine B. After washing with trichloroacetic acid, bound dye was solubilized in 10 mM Tris base and optical density was determined using plate reader. Under conditions of the assay the optical density is proportional to the number of cells in the well. […] The test procedure is described in details by Philip Skehan et. al, J.Natl. Canc. Inst., 82, 1107-1112 (1990). […] Information about some of the cell lines used in these test procedures is available from the American Type Tissue Collection: Cell Lines and Hybridomas, 1994 Reference Guide, 8th Edition.

SW620 = experiment: as above; format: cell-based, Human; conditions: 48 hours exposure, Sulforhodamine B; for IC50: Homo sapiens, SW-620
Procedure: as §1, §2

SKBR3 = experiment: as above; format: cell-based, Human; conditions: 48 hours exposure, Sulforhodamine B; for IC50: Homo sapiens, SK-BR-3
Procedure: as §1, §2

MDAMB435 = experiment: as above; format: cell-based, Human; conditions: 48 hours exposure, Sulforhodamine B; for IC50: Homo sapiens, MDA-MB-435
Procedure: as §1, §2

3T3 = experiment: as above; format: cell-based; conditions: 48 hours exposure, Sulforhodamine B; for IC50: Mus musculus, NIH3T3
Procedure: as §1, §2

Her2/3T3 = experiment: as above; format: cell-based; conditions: 48 hours exposure, Sulforhodamine B
Procedure: as §1, §2

[1] = system: Human Epidermoid Tumors (A431); experiment: In Vivo Inhibition of the Growth of Human Epidermoid Tumors (A431) in mice; conditions: for Relative Tumor Growth Day 7 / % T/C Day 7 / Relative Tumor Growth Day 14 / % T/C Day 14 / Relative Tumor Growth Day 20 / % T/C Day 20 / Relative Tumor Growth Day 28 / % T/C Day 28 / S/T (# of Survivors/# of Treated) / Relative Tumor Growth Day 21 / % T/C Day 21: days 1 through 10; for % T/C Day 7 / % T/C Day 14 / % T/C Day 20 / % T/C Day 28 / % T/C Day 21: * = p < 0.01; for S/T (# of Survivors/# of Treated): Day +28 post tumor staging
Procedure: In Vivo Inhibition of the Growth of Human Epidermoid Tumors (A431)
BALB/c nu/nu female mice (Charles River, Wilmington, MA) were used in the in vivo standard pharmacological test procedures. Human epidermoid carcinoma cells A-431 (American Type Culture Collection, Rockville, Maryland # CRL-155) were grown in vitro as described above. A unit of 5 X 10^6 cells were injected SC into mice. […] Control animals received no drug. […] […] The %T/C (Tumor/Control) is determined by dividing the relative tumor growth of the treated group by the relative tumor growth of the placebo group and multiplying by 100.

[2] = target: T1, epidermal growth factor receptor kinase (Homo sapiens, UniProt P00533); experiment: Inhibition of Epidermal Growth Factor Receptor Kinase (EGF-R) using recombinant enzyme; format: biochemical; conditions: averages of the individual determinations
T1 construct: containing the EGFR cDNA encoding amino acids 645 - 1186 preceded by Met-Ala-(His)6; made in house; host or cells: Sf9 insect cells, recombinant baculovirus vHcEGFR52
T1 sequence (P00533 669-1210): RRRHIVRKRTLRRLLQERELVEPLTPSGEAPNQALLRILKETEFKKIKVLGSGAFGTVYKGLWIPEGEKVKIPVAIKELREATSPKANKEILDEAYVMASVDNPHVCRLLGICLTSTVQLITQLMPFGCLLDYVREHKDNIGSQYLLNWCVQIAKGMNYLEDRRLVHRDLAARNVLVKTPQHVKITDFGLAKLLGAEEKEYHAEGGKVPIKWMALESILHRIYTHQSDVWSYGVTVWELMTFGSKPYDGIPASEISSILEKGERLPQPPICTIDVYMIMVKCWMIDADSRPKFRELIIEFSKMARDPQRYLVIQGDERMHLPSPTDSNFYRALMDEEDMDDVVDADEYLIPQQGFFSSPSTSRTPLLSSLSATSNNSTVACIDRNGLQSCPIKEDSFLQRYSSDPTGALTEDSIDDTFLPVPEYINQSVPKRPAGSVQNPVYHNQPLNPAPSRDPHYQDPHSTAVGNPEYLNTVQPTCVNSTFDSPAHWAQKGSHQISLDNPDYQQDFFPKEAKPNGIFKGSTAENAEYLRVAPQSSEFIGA

Structure (SMILES): COc1cc2ncc(C#N)c(Nc3ccc(F)c(Cl)c3)c2cc1NC(=O)C=CCN1CCC2(CC1)OCCO2 [Example 92, 4-(1,4-Dioxa-8-aza-spiror[4.5]dec-8-yl)-but-2-enoic acid [4-(3-chloro-4-fluoro-phenylamino)-3-cvano-7-methox-quinolin-6-yl]-amide]
- IC50 A431 (A431): 0.283 µg/mL (≈ 0.513 µM)
- IC50 SW620 (SW620): 2.51 µg/mL (≈ 4.55 µM)
- IC50 SKBR3 (SKBR3): 0.188 µg/mL (≈ 0.341 µM)
- IC50 MDAMB435 (MDAMB435): 3.32 µg/mL (≈ 6.01 µM)
- IC50 3T3 (3T3): 2.79 µg/mL (≈ 5.05 µM)
- IC50 Her2/3T3 (Her2/3T3): 0.35 µg/mL (≈ 0.634 µM)
- Relative Tumor Growth Day 7 ([1]; Table 4, 10 mg/kg/dose PO): 3.94
- % T/C Day 7 ([1]; Table 4, 10 mg/kg/dose PO): 72%
- Relative Tumor Growth Day 14 ([1]; Table 4, 10 mg/kg/dose PO): 10.41
- % T/C Day 14 ([1]; Table 4, 10 mg/kg/dose PO): 100%
- Relative Tumor Growth Day 20 ([1]; Table 4, 10 mg/kg/dose PO): 14.76
- % T/C Day 20 ([1]; Table 4, 10 mg/kg/dose PO): 119%
- Relative Tumor Growth Day 28 ([1]; Table 4, 10 mg/kg/dose PO): 22.51
- % T/C Day 28 ([1]; Table 4, 10 mg/kg/dose PO): 159%
- S/T (# of Survivors/# of Treated) ([1]; Table 4, 10 mg/kg/dose PO): 5/5
- Relative Tumor Growth Day 7 ([1]; Table 4, 40 mg/kg/dose PO): 1.49
- % T/C Day 7 ([1]; Table 4, 40 mg/kg/dose PO): 27* %
- Relative Tumor Growth Day 14 ([1]; Table 4, 40 mg/kg/dose PO): 1.58
- % T/C Day 14 ([1]; Table 4, 40 mg/kg/dose PO): 15* %
- Relative Tumor Growth Day 20 ([1]; Table 4, 40 mg/kg/dose PO): 2.60
- % T/C Day 20 ([1]; Table 4, 40 mg/kg/dose PO): 21* %
- Relative Tumor Growth Day 28 ([1]; Table 4, 40 mg/kg/dose PO): 6.22
- % T/C Day 28 ([1]; Table 4, 40 mg/kg/dose PO): 44%
- S/T (# of Survivors/# of Treated) ([1]; Table 4, 40 mg/kg/dose PO): 5/5
- inhibition of tumor growth in vivo ([1]; given orally at 40 mg/Kg): effective inhibitor of tumor growth in vivo

Structure (SMILES): COCCN(C)CC=CC(=O)Nc1cc2c(Nc3ccc(F)c(Cl)c3)c(C#N)cnc2cc1OC.Cl.Cl [Example 89, 4-[(2-Methoxy-ethyl)-methyl-amino]-but-2-enoic acid [4-(3-chloro-4-fluoro-phenylamino)-3-cyano-7-methoxy-quinolin-6-yl]-amide dihydrochloride]
- IC50 (A431): 0.245 µg/mL
- IC50 (SW620): 1.53 µg/mL
- IC50 (SKBR3): 0.107 µg/mL
- IC50 (MDAMB435): 2.07 µg/mL
- IC50 (3T3): 2.04 µg/mL
- IC50 (Her2/3T3): 0.192 µg/mL
- IC50 [2]: 10 nM
- Relative Tumor Growth Day 7 ([1]; Table 5, 10 mg/kg/dose PO): 2.09
- % T/C Day 7 ([1]; Table 5, 10 mg/kg/dose PO): 50* %
- Relative Tumor Growth Day 14 ([1]; Table 5, 10 mg/kg/dose PO): 3.37
- % T/C Day 14 ([1]; Table 5, 10 mg/kg/dose PO): 32* %
- Relative Tumor Growth Day 21 ([1]; Table 5, 10 mg/kg/dose PO): 5.76
- % T/C Day 21 ([1]; Table 5, 10 mg/kg/dose PO): 38* %
- Relative Tumor Growth Day 28 ([1]; Table 5, 10 mg/kg/dose PO): 7.24
- % T/C Day 28 ([1]; Table 5, 10 mg/kg/dose PO): 26* %
- S/T (# of Survivors/# of Treated) ([1]; Table 5, 10 mg/kg/dose PO): 4/5
- Relative Tumor Growth Day 7 ([1]; Table 5, 40 mg/kg/dose PO): 0.49
- % T/C Day 7 ([1]; Table 5, 40 mg/kg/dose PO): 11* %
- Relative Tumor Growth Day 14 ([1]; Table 5, 40 mg/kg/dose PO): 0.58
- % T/C Day 14 ([1]; Table 5, 40 mg/kg/dose PO): 6* %
- Relative Tumor Growth Day 21 ([1]; Table 5, 40 mg/kg/dose PO): 3.11
- % T/C Day 21 ([1]; Table 5, 40 mg/kg/dose PO): 21* %
- Relative Tumor Growth Day 28 ([1]; Table 5, 40 mg/kg/dose PO): 7.20
- % T/C Day 28 ([1]; Table 5, 40 mg/kg/dose PO): 26* %
- S/T (# of Survivors/# of Treated) ([1]; Table 5, 40 mg/kg/dose PO): 5/5
- inhibition of tumor growth in vivo ([1]; given orally at 40 mg/Kg and 10 mg/Kg): effective inhibitor of tumor growth in vivo

- IC50 (A431): 0.234 µg/mL
- IC50 (SW620): 1.24 µg/mL
- IC50 (SKBR3): 0.148 µg/mL
- IC50 (MDAMB435): 1.74 µg/mL
Structure (SMILES): COC[C@@H]1CCCN1CC=CC(=O)Nc1cc2c(Nc3ccc(F)c(Cl)c3)c(C#N)cnc2cc1OC.Cl.Cl [Example 90, (S)-4-(2-Methoxymethyl-pyrrolidin-1-yl)-but-2-enoic acid [4-(3-chloro-4-fluoro-phenylamino)-3-cyano-7-methoxy-quinolin-6-yl]-amide dihydrochloride]
- IC50 (3T3): 2.1 µg/mL
- IC50 (Her2/3T3): 0.329 µg/mL

- IC50 (A431): 0.232 µg/mL
- IC50 (SW620): 1.73 µg/mL
- IC50 (SKBR3): 0.181 µg/mL
- IC50 (MDAMB435): 1.83 µg/mL
- IC50 [2]: 15 nM
Structure (SMILES): COc1cc2ncc(C#N)c(Nc3ccc(F)c(Cl)c3)c2cc1NC(=O)C=CCN1CCCC(CO)C1.Cl (stereo not shown) [Example 91, 4-(3-Hydroxymethyl-piperidin-1-yl)-but-2-enoic acid [4-(3-chloro-4-fluoro-phenylamino)-3-cyano-7-methoxy-quinolin-6-yl]-amide hydrochloride]
- IC50 (3T3): 2.87 µg/mL
- IC50 (Her2/3T3): 0.375 µg/mL
